What was measured:
kochia [1] = assay: Test C postemergence; type: in vivo, Bassia scoparia; settings: postemergence, 10 days
Method in brief: (§1)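 Soil-applied (pre) and foliar (post, 1–2 leaf, 2–10 cm) sprays; surfactant-containing non-phytotoxic solvent vehicle; loam/sand substrate. Readout: visual % control at 10 d, greenhouse, versus untreated.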

kochia [2] = assay: Test C preemergence; type: in vivo, Bassia scoparia; settings: preemergence, 0 to 100 scale (0 no effect, 100 complete control)
Method in brief: as §1

green foxtail [3] = assay: Test C preemergence; type: in vivo, Setaria viridis; settings: preemergence, 0 to 100 scale (0 no effect, 100 complete control)
Method in brief: as §1

wheat [4] = assay: Test C preemergence; type: in vivo, Triticum aestivum; settings: preemergence, 0 to 100 scale (0 no effect, 100 complete control)
Method in brief: as §1

ragweed [5] = assay: Test C postemergence; type: in vivo, Ambrosia artemisiifolia; settings: postemergence, 10 days
Method in brief: as §1

rice = assay: Test D flooded paddy test; type: in vivo, Oryza sativa; settings: 250 g ai/ha, applied to paddy water, visual rating after 13 to 14 days, scale 0 to 100 (0 no effect, 100 complete control)
Method in brief: (§2)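 Visual ratings from 0, meaning no effect, to 100, meaning complete control, were assigned against untreated controls 13 to 14 days after compounds were added to the floodwater of pots kept 3 cm deep, with plants at the 2-leaf stage.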

wheat [6] = assay: Test C postemergence; type: in vivo, Triticum aestivum; settings: postemergence, 10 days
Method in brief: as §1

pigweed, palmer [7] = assay: Test C preemergence; type: in vivo, Amaranthus palmeri; settings: preemergence, 0 to 100 scale (0 no effect, 100 complete control)
Method in brief: as §1

sedge, umbrella = assay: Test D flooded paddy test; type: in vivo, Cyperus difformis; settings: 250 g ai/ha, applied to paddy water, visual rating after 13 to 14 days, scale 0 to 100 (0 no effect, 100 complete control)
Method in brief: as §2

corn [8] = assay: Test C preemergence; type: in vivo, Zea mays; settings: preemergence, 0 to 100 scale (0 no effect, 100 complete control)
Method in brief: as §1

ducksalad = assay: Test D flooded paddy test; type: in vivo, Heteranthera limosa; settings: 250 g ai/ha, applied to paddy water, visual rating after 13 to 14 days, scale 0 to 100 (0 no effect, 100 complete control)
Method in brief: as §2

barnyardgrass [9] = assay: Test D flooded paddy test; type: in vivo, Echinochloa crus-galli; settings: 250 g ai/ha, applied to paddy water, visual rating after 13 to 14 days, scale 0 to 100 (0 no effect, 100 complete control)
Method in brief: as §2

blackgrass [10] = assay: Test C preemergence; type: in vivo, Alopecurus myosuroides; settings: preemergence, 0 to 100 scale (0 no effect, 100 complete control)
Method in brief: as §1

soybean [11] = assay: Test C preemergence; type: in vivo, Glycine max; settings: preemergence, 0 to 100 scale (0 no effect, 100 complete control)
Method in brief: as §1

pigweed, palmer [12] = assay: Test C postemergence; type: in vivo, Amaranthus palmeri; settings: postemergence, 10 days
Method in brief: as §1

oat, wild [13] = assay: Test C postemergence; type: in vivo, Avena fatua; settings: postemergence, 10 days
Method in brief: as §1

corn [14] = assay: Test C postemergence; type: in vivo, Zea mays; settings: postemergence, 10 days
Method in brief: as §1

oat, wild [15] = assay: Test C preemergence; type: in vivo, Avena fatua; settings: preemergence, 0 to 100 scale (0 no effect, 100 complete control)
Method in brief: as §1

ryegrass, Italian [16] = assay: Test C preemergence; type: in vivo, Lolium multiflorum; settings: preemergence, 0 to 100 scale (0 no effect, 100 complete control)
Method in brief: as §1

barnyardgrass [17] = assay: Test C postemergence; type: in vivo, Echinochloa crusgalli; settings: postemergence, 10 days
Method in brief: as §1

green foxtail [18] = assay: Test C postemergence; type: in vivo, Setaria viridis; settings: postemergence, 10 days
Method in brief: as §1

blackgrass [19] = assay: Test C postemergence; type: in vivo, Alopecurus myosuroides; settings: postemergence, 10 days
Method in brief: as §1

ryegrass, Italian [20] = assay: Test C postemergence; type: in vivo, Lolium multiflorum; settings: postemergence, 10 days
Method in brief: as §1

ragweed [21] = assay: Test C preemergence; type: in vivo, Ambrosia artemisiifolia; settings: preemergence, 0 to 100 scale (0 no effect, 100 complete control)
Method in brief: as §1

barnyardgrass [22] = assay: Test C preemergence; type: in vivo, Echinochloa crusgalli; settings: preemergence, 0 to 100 scale (0 no effect, 100 complete control)
Method in brief: as §1

galium = assay: Test C postemergence; type: in vivo, Galium aparine; settings: postemergence, 10 days
Method in brief: as §1

horseweed = assay: Test C postemergence; type: in vivo, Erigeron canadensis; settings: postemergence, 10 days
Method in brief: as §1

soybean [23] = assay: Test C postemergence; type: in vivo, Glycine max; settings: postemergence, 10 days
Method in brief: as §1

[24] = 125 g ai/ha, 0 to 100 scale, 0 no effect, 100 complete control
[25] = 500 g ai/ha, 0 to 100 scale (0 no effect, 100 complete control)

## CCc1ncn(-c2ccc(C)c(C(=O)N3CC(C(F)(F)F)Oc4c(Cl)cccc43)c2)n1 (racemic) [Compound 290]
Kochia [1]; [24]
  Plant response rating, Kochia: 80
Kochia [1]; [25]
  Plant response rating, Kochia: 90
Kochia [2]; 500 g ai/ha
  Kochia plant response rating: 90
Kochia [2]; Test C, 125 g ai/ha
  Kochia plant response rating: 90
Green foxtail [3]; 500 g ai/ha
  Foxtail, Green plant response rating: 100
Green foxtail [3]; Test C, 125 g ai/ha
  Foxtail, Green plant response rating: 100
Wheat [4]; 500 g ai/ha
  Wheat plant response rating: 50
Wheat [4]; Test C, 125 g ai/ha
  Wheat plant response rating: 30
Ragweed [5]; [24]
  Plant response rating, Ragweed: 70
Ragweed [5]; [25]
  Plant response rating, Ragweed: 80
rice
  Plant response rating, Rice (Flood): 10
Wheat [6]; [24]
  Plant response rating, Wheat: 30
Wheat [6]; [25]
  Plant response rating, Wheat: 60
pigweed, palmer [7]; 500 g ai/ha
  Pigweed, Palmer plant response rating: 100
pigweed, palmer [7]; Test C, 125 g ai/ha
  Pigweed, Palmer plant response rating: 100
sedge, umbrella
  Plant response rating, Sedge, Umbrella (Flood): 85
Corn [8]; 500 g ai/ha
  Corn plant response rating: 40
Corn [8]; Test C, 125 g ai/ha
  Corn plant response rating: 30
ducksalad
  Plant response rating, Ducksalad (Flood): 50
Barnyardgrass [9]
  Plant response rating, Barnyardgrass (Flood): 10
Blackgrass [10]; 500 g ai/ha
  Blackgrass plant response rating: 70
Blackgrass [10]; Test C, 125 g ai/ha
  Blackgrass plant response rating: 70
Soybean [11]; 500 g ai/ha
  Soybean plant response rating: 80
Soybean [11]; Test C, 125 g ai/ha
  Soybean plant response rating: 90
pigweed, palmer [12]; [24]
  Plant response rating, Pigweed, Palmer: 100
pigweed, palmer [12]; [25]
  Plant response rating, Pigweed, Palmer: 100
oat, wild [13]; [24]
  Plant response rating, Oat, Wild: 10
oat, wild [13]; [25]
  Plant response rating, Oat, Wild: 90
Corn [14]; [24]
  Plant response rating, Corn: 30
Corn [14]; [25]
  Plant response rating, Corn: 30
oat, wild [15]; 500 g ai/ha
  Oat, Wild plant response rating: 90
oat, wild [15]; Test C, 125 g ai/ha
  Oat, Wild plant response rating: 70
ryegrass, Italian [16]; 500 g ai/ha
  Ryegrass, Italian plant response rating: 100
ryegrass, Italian [16]; Test C, 125 g ai/ha
  Ryegrass, Italian plant response rating: 90
Barnyardgrass [17]; [24]
  Plant response rating, Barnyardgrass: 50
Barnyardgrass [17]; [25]
  Plant response rating, Barnyardgrass: 90
Green foxtail [18]; [24]
  Plant response rating, Foxtail, Green: 80
Green foxtail [18]; [25]
  Plant response rating, Foxtail, Green: 90
Blackgrass [19]; [24]
  Plant response rating, Blackgrass: 10
Blackgrass [19]; [25]
  Plant response rating, Blackgrass: 90
ryegrass, Italian [20]; [24]
  Plant response rating, Ryegrass, Italian: 50
ryegrass, Italian [20]; [25]
  Plant response rating, Ryegrass, Italian: 90
Ragweed [21]; 500 g ai/ha
  Ragweed plant response rating: 70
Ragweed [21]; Test C, 125 g ai/ha
  Ragweed plant response rating: 60
Barnyardgrass [22]; 500 g ai/ha
  Barnyardgrass plant response rating: 100
Barnyardgrass [22]; Test C, 125 g ai/ha
  Barnyardgrass plant response rating: 90
galium; [24]
  Plant response rating, Galium: 100
galium; [25]
  Plant response rating, Galium: 100
horseweed; [24]
  Plant response rating, Horseweed: 40
horseweed; [25]
  Plant response rating, Horseweed: 40
Soybean [23]; [24]
  Plant response rating, Soybean: 100
Soybean [23]; [25]
  Plant response rating, Soybean: 100

Reference: patent US20260262643A1, “HERBICIDAL BENZOXAZINES” (FMC CORPORATION, priority 2022, published 2026)
